pIC50: −log10 of the molar value. Calls of active or inactive are those of the source. The rule behind the calls is not given here.

In data set [1] the target is T1, Amyloid-beta precursor protein (Homo sapiens, UniProt P05067). As to the kind of experiment: Inhibition of amyloid beta (1 to 42) (unknown origin) self-induced aggregation at 20 uM after 48 hrs by thioflavin T fluorescence assay relative to control.
In data set [2] the test system is Radical scavenging activity. Briefly: Antioxidant activity assessed as DPPH radical scavenging activity at 2 mM relative to control. The data set is classed as functional.
The target in the next data set is Cholinesterase (Equus caballus, UniProt P81908).
Chain of Cholinesterase (P81908 whole entry): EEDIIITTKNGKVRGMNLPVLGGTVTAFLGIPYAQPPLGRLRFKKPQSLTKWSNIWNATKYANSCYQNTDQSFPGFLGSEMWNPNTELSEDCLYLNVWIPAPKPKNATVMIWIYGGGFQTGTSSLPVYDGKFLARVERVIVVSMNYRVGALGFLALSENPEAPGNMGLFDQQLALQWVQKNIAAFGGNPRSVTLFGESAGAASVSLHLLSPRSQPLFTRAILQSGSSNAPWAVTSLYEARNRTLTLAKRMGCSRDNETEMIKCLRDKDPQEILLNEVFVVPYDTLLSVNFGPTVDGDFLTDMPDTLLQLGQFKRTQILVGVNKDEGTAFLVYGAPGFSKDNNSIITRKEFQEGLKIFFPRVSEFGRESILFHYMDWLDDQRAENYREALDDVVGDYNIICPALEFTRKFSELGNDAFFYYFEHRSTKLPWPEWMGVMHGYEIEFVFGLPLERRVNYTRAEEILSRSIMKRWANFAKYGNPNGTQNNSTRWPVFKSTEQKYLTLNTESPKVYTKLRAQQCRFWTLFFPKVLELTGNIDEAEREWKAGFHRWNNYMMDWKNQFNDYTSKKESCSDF
A further data set concerns the target Acetylcholinesterase (Electrophorus electricus, UniProt O42275).
Data set [3] addresses T1, Amyloid-beta precursor protein.
Description: Inhibition of amyloid beta (1 to 42) (unknown origin) self-induced aggregation after 48 hrs by thioflavin T fluorescence assay
The target in data set [4] is Acetylcholinesterase (Electrophorus electricus) (UniProt O42275). As to the kind of experiment: Potency index, ratio of galanthamine IC50 to compound IC50 for electric eel AChE.
Chain of Acetylcholinesterase (Electrophorus electricus) (O42275 24-633 limits assumed): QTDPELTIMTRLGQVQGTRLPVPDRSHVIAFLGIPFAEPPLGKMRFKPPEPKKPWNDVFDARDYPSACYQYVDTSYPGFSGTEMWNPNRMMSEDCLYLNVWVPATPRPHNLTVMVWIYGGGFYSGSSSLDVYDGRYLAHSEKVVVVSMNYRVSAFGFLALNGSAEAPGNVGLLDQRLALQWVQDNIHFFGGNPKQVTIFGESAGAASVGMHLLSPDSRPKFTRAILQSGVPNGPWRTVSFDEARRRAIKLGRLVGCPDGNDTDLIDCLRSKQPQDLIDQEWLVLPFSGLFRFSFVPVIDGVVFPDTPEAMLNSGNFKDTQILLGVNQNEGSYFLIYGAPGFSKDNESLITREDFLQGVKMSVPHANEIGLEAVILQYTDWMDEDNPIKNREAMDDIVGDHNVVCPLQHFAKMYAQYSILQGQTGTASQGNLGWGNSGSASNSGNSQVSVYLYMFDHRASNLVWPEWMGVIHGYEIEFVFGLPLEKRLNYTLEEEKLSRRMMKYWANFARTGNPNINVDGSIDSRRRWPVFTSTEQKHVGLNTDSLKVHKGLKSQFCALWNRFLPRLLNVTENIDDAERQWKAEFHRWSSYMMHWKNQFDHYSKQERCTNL
The target is the same in data set [5]. As to the kind of experiment: Potency index, ratio of tacrine IC50 to compound IC50 for electric eel AChE.
Data set [6] concerns the target Cholinesterase (Equus caballus) (UniProt P81908). As to the kind of experiment: Potency index, ratio of galanthamine IC50 to compound IC50 for equine serum BuChE.
The target is the same in data set [7]. As to the kind of experiment: Potency index, ratio of tacrine IC50 to compound IC50 for equine serum BuChE.
Data set [8] shares this target. As to the kind of experiment: Competitive inhibition of equine serum BuChE using […] as substrate at 22.5 to 90 nM by Lineweaver-Burk plot analysis.
Data set [9] addresses Acetylcholinesterase (Electrophorus electricus) (UniProt O42275). To be noted: 7.7 to 30.8 nM.
A short description of data set [10]: Cytotoxicity against human SH-SY5Y cells assessed as survival at 25 uM after 24 hrs by MTT assay relative to control. It counts as cell-based. The following applies: read-out: Survival.
Data set [11] in a line: Cytotoxicity against human SH-SY5Y cells assessed as survival at 10 uM after 24 hrs by MTT assay relative to control. To be noted: read-out: Survival. It counts as cell-based.
A short description of data set [12]: Cytotoxicity against human SH-SY5Y cells assessed as survival at 5 uM after 24 hrs by MTT assay relative to control. It counts as cell-based. The following applies: read-out: Survival.
Data set [13] can be described thus: Metal chelating activity of the compound assessed as Cu2+-complex formation in methanol at 25 uM by UV-vis spectrophotometric analysis. It counts as functional.
A short description of data set [14]: Cytotoxicity against human SH-SY5Y cells assessed as survival at 50 uM after 24 hrs by MTT assay relative to control. The following applies: read-out: Survival. It counts as cell-based.
Data set [15] can be described thus: Cytotoxicity against human SH-SY5Y cells assessed as survival at 1 uM after 24 hrs by MTT assay relative to control. It counts as cell-based. To be noted: read-out: Survival.
Data set [16] can be described thus: Metal chelating activity of the compound assessed as Fe2+-complex formation in methanol at 25 uM by UV-vis spectrophotometric analysis. The data set is classed as functional.

T1 sequence (P05067 whole entry): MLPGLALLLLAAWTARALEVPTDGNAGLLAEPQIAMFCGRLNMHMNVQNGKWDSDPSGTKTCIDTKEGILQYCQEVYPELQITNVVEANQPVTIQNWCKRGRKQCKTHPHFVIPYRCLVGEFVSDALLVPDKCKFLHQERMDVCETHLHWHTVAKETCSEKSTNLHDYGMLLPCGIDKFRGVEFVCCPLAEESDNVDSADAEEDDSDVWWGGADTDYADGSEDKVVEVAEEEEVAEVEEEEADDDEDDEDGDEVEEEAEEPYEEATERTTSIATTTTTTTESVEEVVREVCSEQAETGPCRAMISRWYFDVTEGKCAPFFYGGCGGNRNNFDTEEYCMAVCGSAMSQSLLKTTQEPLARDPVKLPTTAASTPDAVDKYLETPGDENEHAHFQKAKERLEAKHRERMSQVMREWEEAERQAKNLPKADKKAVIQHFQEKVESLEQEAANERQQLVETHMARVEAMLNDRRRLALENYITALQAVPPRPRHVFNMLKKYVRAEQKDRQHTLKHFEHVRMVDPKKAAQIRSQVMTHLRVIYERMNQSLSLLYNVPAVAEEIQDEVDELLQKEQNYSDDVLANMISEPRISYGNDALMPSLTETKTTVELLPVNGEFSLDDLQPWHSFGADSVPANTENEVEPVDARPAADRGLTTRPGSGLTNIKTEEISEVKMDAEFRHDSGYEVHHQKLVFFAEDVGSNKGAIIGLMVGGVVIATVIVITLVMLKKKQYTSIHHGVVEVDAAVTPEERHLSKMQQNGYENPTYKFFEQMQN
Chain of Cholinesterase (Equus caballus) (P81908 whole entry): as the sequence (P81908 whole entry) above
Chain of Acetylcholinesterase (O42275 whole entry): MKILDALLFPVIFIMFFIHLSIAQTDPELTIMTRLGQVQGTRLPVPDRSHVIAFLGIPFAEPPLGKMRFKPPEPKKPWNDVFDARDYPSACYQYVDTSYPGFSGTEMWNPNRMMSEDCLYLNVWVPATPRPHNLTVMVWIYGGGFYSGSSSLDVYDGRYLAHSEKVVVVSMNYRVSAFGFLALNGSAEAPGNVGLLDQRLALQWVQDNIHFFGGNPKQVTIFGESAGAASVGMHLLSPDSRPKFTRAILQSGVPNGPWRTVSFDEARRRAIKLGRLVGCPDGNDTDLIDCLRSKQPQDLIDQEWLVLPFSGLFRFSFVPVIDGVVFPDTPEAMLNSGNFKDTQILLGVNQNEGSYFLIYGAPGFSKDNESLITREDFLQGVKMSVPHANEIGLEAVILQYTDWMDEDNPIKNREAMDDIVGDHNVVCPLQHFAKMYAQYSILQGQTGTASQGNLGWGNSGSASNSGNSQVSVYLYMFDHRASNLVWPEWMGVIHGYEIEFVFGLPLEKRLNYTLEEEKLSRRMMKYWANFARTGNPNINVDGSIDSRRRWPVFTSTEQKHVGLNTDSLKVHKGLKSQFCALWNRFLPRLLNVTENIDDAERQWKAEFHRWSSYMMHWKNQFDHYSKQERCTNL

Compound `COc1ccc(-c2cc(=O)c3ccc(OCCCN4CCN(CCCNc5c6c(nc7ccccc57)CCCC6)CC4)cc3o2)cc1` registered an inhibition in data set [1] of 10.9%. Also, the Activity in data set [2] is below 36%. Also, the pIC50 against Cholinesterase is 6.18; against Acetylcholinesterase, 6.38.
In data set [1], `O=c1cc(-c2ccccc2)oc2cc(OCCN3CCN(CCNc4c5c(nc6ccccc46)CCCC5)CC3)ccc12` returned an inhibition of 54.1%. The Activity in [2] was below 36%. Also, the figures for the pIC50 (against Cholinesterase; at Acetylcholinesterase; in data set [3]) were 6.28, 6.32 and 4.77, respectively.
The compound `Cc1ccc(-c2cc(=O)c3ccc(OCCCN4CCN(CCCNc5c6c(nc7ccccc57)CCCC6)CC4)cc3o2)cc1` gave an inhibition in [1] of 13.4%. In addition, the Activity in data set [2] was below 36%. Also, the pIC50 is 6.24 at Cholinesterase and 6.50 at Acetylcholinesterase.
In data set [1], `O=c1cc(-c2ccccc2)oc2cc(OCCCCN3CCN(CCNc4c5c(nc6ccccc46)CCCC5)CC3)ccc12` registered an inhibition of 53.7%. Moreover, the Activity in data set [2] was below 36%. Besides, the pIC50 against Cholinesterase was 6.71; on Acetylcholinesterase it was 6.57; in data set [3] it was 4.79.
Taken in the same sequence, the figures for `O=c1cc(-c2ccccc2)oc2cc(OCCCN3CCN(CCCNc4c5c(nc6ccccc46)CCCC5)CC3)ccc12` were 58%, below 36%, 6.68, 6.82 and 4.83.
On to `COc1cc(OCCCN2CCN(CCCNc3c4c(nc5ccccc35)CCCC4)CC2)cc2occc(=O)c12`, for which the inhibition in data set [1] is 62%. For the same compound, the Activity in [2] was below 36%. For the same compound, the Ratio IC50 in data set [4] came out at 318; in data set [5], 31. For the same compound, the negative logarithm of the IC50 (pIC50) on Cholinesterase is 7.46; at Acetylcholinesterase it was 8.08; in [3], 4.90.
As for `O=c1cc(-c2ccccc2)oc2cc(O)ccc12` [7-HYDROXYFLAVONE], the inhibition in [1] amounted to 27.2%. Also, the results for the pIC50 on Cholinesterase and against Acetylcholinesterase were below 4.00 and 4.07, respectively.
The compound `O=c1cc(-c2ccccc2)oc2cc(OCCCCCN3CCN(CCCNc4c5c(nc6ccccc46)CCCC5)CC3)ccc12` had an inhibition in data set [1] of 62.5%. In addition, the Activity in [2] was below 36%. In addition, the pIC50 against Cholinesterase is 6.37; against Acetylcholinesterase it was 6.23; in data set [3], 4.88.
For the compound `CN(C)c1ccc(-c2cc(=O)c3ccc(OCCCN4CCN(CCCNc5c6c(nc7ccccc57)CCCC6)CC4)cc3o2)cc1`, the inhibition in [1] came to 12.2%. Further, the Activity in data set [2] was below 36%. In addition, the pIC50 at Cholinesterase was 6.07; against Acetylcholinesterase, 6.64.
In the case of `O=c1cc(-c2ccccc2)oc2cc(OCCCCCCN3CCN(CCNc4c5c(nc6ccccc46)CCCC5)CC3)ccc12`, in [1], the inhibition turned out to be 63.3%. For the same compound, the Activity in data set [2] was below 36%. The pIC50 was 6.54 on Cholinesterase, 6.14 on Acetylcholinesterase and 4.85 in [3].
In the case of `O=c1cc(-c2ccc([N+](=O)[O-])cc2)oc2cc(OCCCN3CCN(CCCNc4c5c(nc6ccccc46)CCCC5)CC3)ccc12`, the inhibition in data set [1] was found to be 61.1%. Further, in data set [2], the Activity is below 36%. Besides, the pIC50 against Cholinesterase is 6.34; against Acetylcholinesterase, 7.12; in data set [3] it was 4.85.
Compound `Nc1ccc(-c2cc(=O)c3ccc(OCCCN4CCN(CCCNc5c6c(nc7ccccc57)CCCC6)CC4)cc3o2)cc1` registered an inhibition in data set [1] of 9%. The Activity in data set [2] is below 36%. Besides, the pIC50 is 6.16 against Cholinesterase and 6.47 against Acetylcholinesterase.
In [1], `O=c1cc(-c2ccccc2)oc2cc(OCCCN3CCN(CCNc4c5c(nc6ccccc46)CCCC5)CC3)ccc12` returned an inhibition of 59.1%. For the same compound, the Activity in [2] is below 36%. In addition, the pIC50 is 6.51 against Cholinesterase, 6.20 at Acetylcholinesterase and 4.86 in data set [3].
On to `COc1cc(OCCCN2CCN(CCCNc3c4c(nc5ccccc35)CCCC4)CC2)cc2oc(-c3ccccc3)cc(=O)c12`, for which, in data set [1], the inhibition is 68.7%. Besides, in data set [2], the Activity was below 36%. For the same compound, the pIC50 on Cholinesterase is 6.44; against Acetylcholinesterase, 7.24; in data set [3] it was 5.02.
Turning to `O=c1cc(-c2ccccc2)oc2cc(OCCCCN3CCN(CCCNc4c5c(nc6ccccc46)CCCC5)CC3)ccc12`, the inhibition in [1] was determined as 53.4%. In data set [2], the Activity was below 36%. The pIC50 is 6.50 against Cholinesterase, 6.26 at Acetylcholinesterase and 4.76 in data set [3].
In [1], `O=c1cc(-c2ccccc2)oc2cc(OCCCCCN3CCN(CCNc4c5c(nc6ccccc46)CCCC5)CC3)ccc12` displayed an inhibition of 65.4%. The Activity in data set [2] is below 36%. Besides, the pIC50 is 6.59 on Cholinesterase, 6.25 on Acetylcholinesterase and 4.89 in [3].
In [1], `O=c1ccoc2cc(OCCCN3CCN(CCCNc4c5c(nc6ccccc46)CCCC5)CC3)ccc12` had an inhibition of 67.4%. Besides, in data set [2], the Activity is below 36%. For the same compound, the values for the Ratio IC50 in data set [6] and in data set [7] were 508 and 2, respectively. Also, the pIC50 on Cholinesterase was 7.59; at Acetylcholinesterase it was 7.99; in data set [3], 4.94.
Consider `O=c1cc(-c2ccccc2)oc2cc(OCCCCCCN3CCN(CCCNc4c5c(nc6ccccc46)CCCC5)CC3)ccc12`, for which, in data set [1], the inhibition stood at 63%. Besides, the Activity in data set [2] was below 36%. The pIC50 is 6.38 on Cholinesterase, 6.07 at Acetylcholinesterase and 4.87 in data set [3].
Consider `O=c1ccoc2cc(OCCCN3CCN(CCCNc4c5c(nc6ccccc46)CCCC5)CC3)cc(O)c12`, for which the inhibition in [1] was 85.3%. In addition, the inhibition entry in [8] and in data set [9] was “Active” throughout. The Activity in data set [2] was below 36%. For the same compound, the values for the pIC50 (against Cholinesterase; on Acetylcholinesterase; in [3]) were 7.35, 7.81 and 5.32, respectively.
The compound `O=c1cc(-c2ccccc2)oc2cc(OCCN3CCN(CCCNc4c5c(nc6ccccc46)CCCC5)CC3)ccc12` displayed an inhibition in data set [1] of 70%. Further, the Activity in [2] is below 36%. Moreover, the pIC50 is 6.58 at Cholinesterase, 6.38 at Acetylcholinesterase and 5.01 in [3].
On to `O=c1cc(-c2ccc(Cl)cc2)oc2cc(OCCCN3CCN(CCCNc4c5c(nc6ccccc46)CCCC5)CC3)ccc12`, for which the inhibition in data set [1] came out at 48.9%. In addition, in [2], the Activity was below 36%. Further, the values for the pIC50 against Cholinesterase and against Acetylcholinesterase were 6.00 and 7.40, respectively.
With `O=c1cc(-c2ccccc2)oc2cc(OCCCN3CCN(CCCNc4c5c(nc6ccccc46)CCCC5)CC3)cc(O)c12`, the viability at 24 h, 25 µM in data set [10] worked out at 92.7%. In data set [1], this compound returned an inhibition of 79.1%. Besides, the Activity in data set [2] was below 36%. Moreover, in data set [11], the viability at 24 h, 10 µM amounted to 94.4%. The viability at 24 h, 5 µM in [12] was 96.5%. Also, the values for the pIC50 (against Cholinesterase; at Acetylcholinesterase; in data set [3]) were 6.25, 6.88 and 5.19, respectively. Further, the outcome in data set [13] and in data set [16] was Active. In addition, the viability at 24 h, 50 µM in data set [14] was determined as 90.1%. In [15], the viability at 24 h, 1 µM is 97.3%.

For the origin of these results see ChEMBL document CHEMBL2434826, “Multifunctional tacrine-flavonoid hybrids with cholinergic, β-amyloid-reducing, and metal chelating properties for the treatment of Alzheimer's disease” (Eur J Med Chem, 2013).
